# From patent US10422079B2, “Method for preserving recycled fiber by using biocides in paper manufacturing and method for manufacturing paper using recycled fibers” (ECOLAB USA INC., priority 2014, dated 2019)
# Tested on: pulp contaminated by the microbes (bacteria)
# Assay: Starch degradation in microbe-inoculated recycled-fiber (AOCC) pulp treated with biocides, 5 days (Example 4)
# Assay type: cell-based
# Conditions: total chlorine 20 ppm, added once a day, combinations 10 ppm + 10 ppm
# Description: 150 g standard American Old Corrugated Containers (sometimes called as AOCC) were weighted. The total starch content of the recycled American Old Corrugated Containers was detected according to the same starch measuring method of example 2, and the result was 9.1%.
# In the pulping and papermaking process, the above waste paper was cut into pieces and immersed into 15 kilograms water overnight. The obtained sample was disintegrated by Valley Beater for 30 minutes and pulped for 20 minutes, and the pulp concentration thereof is about 1%.
# The above obtained pulp was inoculated by the pulp which was contaminated by bacteria in the ratio of one to thousand, followed by cultivating for 3 hours at 37° C. The simulation pulp contaminated by the microbes was obtained to use for the following experiment. The pH, oxidation-reduction potential (ORP), concentration of adenosine triphosphate (ATP) and total number of aerobic bacteria colonies of the pulp which was contaminated initially by the microbes were detected. […]
# The above substances were added into the pulps once a day and the concentrations of the total chlorine were maintained at 20 ppm by controlling the addition doses. The whole experiment was conducted for 5 days and the total starches contents were monitored.
smiles,measurement,value
OCl [sodium hypochlorite],starch degradation rate,5%
